Here are results for one compound from patent publication US3980646A, “3-Methylpyrazole-5-carboxylates and medicaments containing these compounds” (Wulfing; Johann A., priority 1974, dated 1976).

Assay [1] concerns free fatty acids (FFS). Kind of assay: influence on the free fatty acids (FFS) in starved (hyperlipacidaemic) animals, hunger lipolysis. In kind it is in vivo, rats (Wistar). The note with it: starved. The procedure: Investigations on a total of 260 Wistarrats were conducted with 7-[3-(N-methyl-N-2-hydroxyethyl)-amino-2-hydroxypropyl]-1,3-dimethylxanthine-3-methylpyrazole-5-carboxylate.
Examination of the influence of 7-[3-(N-methyl-N-2-hydroxy-
ethyl)-amino-2-hydroxypropyl]-1,3-dimethylxanthine-3-methyl-
pyrazole-5-carboxylate on the serum fatty acids (FFS) of
Male Rats, starve for 17 hours
Dose: 100 mg/kg body weight, oral by esophagus probe,
Blood removal: 1 hour after application
pyrazole-5-carboxylate on the free fatty acids (FFS) in
starved animals 1 hour after application
Comparative examinations of the influence of 7-[3-(N-methyl-
carboxylic acid on the free fatty acids (FFS) in starved
animals 1 hour after application
pyrazole-5-carboxylic acid on the free fatty acids (FFS)
in starved animals 6 hours after application

Assay [2] has as its system serum triglycerides (TG). Nature of the assay: influence on the serum triglycerides (TG) in normal animals. The format is in vivo, Rats (Wistar). The note with it: for TG: starve for 5 hours; for TG, mean (x): 1 hour. The procedure: Rats, starve for 5 hours
40 mg/kg body weight of active principle according to
the invention, oral by esophagus probe 1 hour before
12 mg/kg body weight of 3-methylpyrazole-5-carboxylic
acid, equim. dosage, 1 hour before removal of blood
Dose: 10 mg/kg body weight of active principle according to the
invention, oral by esophagus probe 1 hour before blood removal
Dose: 3 mg/kg body weight of 3-methylpyrazole-5-carboxylic acid,
equim. dosage, oral by esophagus probe 1 hour before

Assay [3] concerns free fatty acids (FFS). Kind of assay: influence on the free fatty acids (FFS) after repeated application once daily for 4 days. The note with it: for free fatty acids (FFS): individual animals, 15 mg/kg. The format is in vivo, Rats male (Wistar). The procedure:
Rats male, repeated application once daily for 4 days,
on the 4th day groups of 10 animals were killed at
intervals of 30 minutes, 1 hour and 2 hours after the
last application by ether narcosis and heart puncture.
10 controls were given esophagus probe, animals starved
for 17 hours before killing (cf. FIG. 4)
7-[3-(N-methyl-2-hydroxyethyl)-amino-2-
hydroxypropyl]-1,3-dimethylxanthine-3-
methylpyrazole-5-carboxylate 50 mg/kg peroral
3-methylpyrazole-5-carboxylic acid (3-MPC)
eq./kg 15 mg/kg peroral

The conditions of assay [4]: starving rats; David L. Smith et al; cited from earlier work.
Assay [5] deals with free fatty acids and triglycerides in the serum. The note with it: cited from earlier work.
The conditions of assay [6]: free acid, known per se; cited from earlier work.

Each structure is given as a SMILES string. Where “and” joins values, the source holds several entries; their conditions need not be identical. Equal values may be shown once.

On to `Cc1cc(C(=O)O)[nH]n1` [3-methylpyrazole-5-carboxylic acid, reference compound], for which the FFS in assay [1] (Table 5, individual animals, 1 hour after application, 15 mg/kg) is 0.41 μval/ml and 0.43 μval/ml and 0.59 μval/ml and 0.52 μval/ml and 0.67 μval/ml and 0.37 μval/ml and 0.40 μval/ml and 0.54 μval/ml and 0.44 μval/ml; in assay [1] (Table 6, individual animals, 6 hours after application, 15 mg/kg p.o., 15 mg/kg) it was 0.51 μval/ml and 0.50 μval/ml and 0.67 μval/ml and 0.64 μval/ml and 0.56 μval/ml and 0.53 μval/ml and 0.61 μval/ml and 0.85 μval/ml and 0.44 μval/ml and 0.54 μval/ml and 0.58 μval/ml and 1.00 μval/ml and 0.47 μval/ml and 1.46 μval/ml and 1.10 μval/ml. Besides, the “FFS, mean” value in assay [1] (Table 5, mean, n=10, 1 hour after application, 15 mg/kg, control 1.08, p<0.001) was 0.47 μval/ml. The “FFS, mean (x)” value in assay [1] (Table 6, mean, n=21, 6 hours after application, 15 mg/kg p.o., control 0.86, p<0.01) turned out to be 0.69 μval/ml. Further, the TG in assay [2] (Table 7, individual animals, 12 mg/kg (equim. dosage) 1 hour before removal of blood, 12 mg/kg) was 90.2 mg % and 87.3 mg % and 58.7 mg % and 107.4 mg % and 51.6 mg % and 55.8 mg % and 71.6 mg % and 60.1 mg % and 68.7 mg %; in assay [2] (Table 8, individual animals, 3 mg/kg (equim. dosage) oral 1 hour before blood removal, 3 mg/kg), 137.4 mg % and 87.3 mg % and 70.2 mg % and 74.4 mg % and 50.1 mg % and 43.0 mg % and 57.2 mg % and 51.5 mg % and 32.9 mg % and 73.0 mg %. In addition, the “TG, mean (x)” value was 74.1 mg % in assay [2] (Table 7, mean, 12 mg/kg (equim. dosage), control x = 66.4) and 67.7 mg % in assay [2] (Table 8, mean, 3 mg/kg (equim. dosage) oral, control x = 86.3, p>0.05→Ko., p>0.05→xant.-carbox.). Besides, in assay [2] (equimolecular doses of the free acid, result in words), the “effect on serum triglyceride level of normal animals” value is listed as “relatively weak, i.e. insignificant effect”. The “free fatty acids (FFS)” value in assay [3] (15 mg/kg p.o. 4 × appl., 30' after last application) is 0.66 μval/ml plasma and 0.59 μval/ml plasma and 0.53 μval/ml plasma and 0.91 μval/ml plasma and 0.56 μval/ml plasma and 0.95 μval/ml plasma and 1.02 μval/ml plasma and 0.81 μval/ml plasma and 0.80 μval/ml plasma and 0.60 μval/ml plasma; in assay [3] (15 mg/kg p.o. 4 × appl., 1 h after last application), 0.75 μval/ml plasma and 0.73 μval/ml plasma and 0.95 μval/ml plasma and 0.96 μval/ml plasma and 1.03 μval/ml plasma and 1.16 μval/ml plasma and 1.08 μval/ml plasma and 0.84 μval/ml plasma and 1.24 μval/ml plasma and 0.92 μval/ml plasma; in assay [3] (15 mg/kg p.o. 4 × appl., 2 h after last application) it was 0.62 μval/ml plasma and 0.59 μval/ml plasma and 0.51 μval/ml plasma and 0.70 μval/ml plasma and 0.88 μval/ml plasma and 0.84 μval/ml plasma and 1.27 μval/ml plasma and 1.20 μval/ml plasma and 0.86 μval/ml plasma. For the same compound, the “free fatty acids (FFS), mean (x9)” value in assay [3] (mean of 9, 15 mg/kg p.o. 4 × appl., 2 h after last application, control 1.27, p<0.001) is listed as 0.83 μval/ml plasma. Also, the “free fatty acids (FFS), mean (x10)” value in assay [3] (15 mg/kg p.o. 4 × appl., 30' after last application, control 1.27, p<0.001) stood at 0.74 μval/ml plasma; in assay [3] (15 mg/kg p.o. 4 × appl., 1 h after last application, control 1.27, p<0.001) it was 0.97 μval/ml plasma. In addition, the “weakening of effect on free fatty acid content by pretreatment” value in assay [3] (repeated application, result in words) is “able to confirm the results of these tests”. In addition, the “hypoglycaemic activity relative to tolbutamide” value in assay [4] is “two hundred times”. Further, in assay [5] (observed by the authors, limits its suitability for therapeutic application), the tachyphylaxia result is recorded as “tachyphylaxia”. Also, in assay [5] (pretreatment 4 to 5 days, Gerritzen et al), the “effect of pretreatment on the free fatty acid content of the plasma” value is given as “weakens the effect on the free fatty acid content of the plasma”. Moreover, the “level of free fatty acids and triglycerides in the serum” value in assay [5] (small doses, starving normal rats) was “reduces the level of free fatty acids and triglycerides in the serum”. In assay [6], the lipid-lowering activity entry was “shows corresponding activity”.
